# Test results from the supplement of paper PMC10307832.
# Assays:
# Assay in all cases: relative viability (nuclei count vs DMSO), 5 days (fraction); higher = more cells survive
# [1] = test system: NCI-H1915
# Procedure, shortened: (§1)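 Lung cancer cell lines were pin-tool dosed in 1536-well plates on the day after seeding, with either a lone drug or a fixed anchor-drug dose plus five library-drug doses (not always all listed) in √10 steps. Nuclei were counted on 4× images after 5 days. Relative viability is the ratio of treated-well to vehicle-well nuclei counts, with each value a median of duplicate plates.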
# [2] = test system: COR-L 105
# Procedure, shortened: as §1
# [3] = test system: NCI-H1944
# Procedure, shortened: as §1
# [4] = test system: HCC-78
# Procedure, shortened: as §1
# [5] = test system: UMC-11
# Procedure, shortened: as §1
# [6] = test system: SK-LU-1
# Procedure, shortened: as §1
# [7] = test system: LXF-289
# Procedure, shortened: as §1
# [8] = test system: LC-2-ad
# Procedure, shortened: as §1
# [9] = test system: NCI-H1793
# Procedure, shortened: as §1
# [10] = test system: EPLC-272H
# Procedure, shortened: as §1
# [11] = test system: NCI-H460
# Procedure, shortened: as §1
# [12] = test system: A-427
# Procedure, shortened: as §1
# [13] = test system: NCI-H1792
# Procedure, shortened: as §1
# [14] = test system: HOP-62
# Procedure, shortened: as §1
# [15] = test system: NCI-H1975
# Procedure, shortened: as §1
# [16] = test system: NCI-H1755
# Procedure, shortened: as §1
# [17] = test system: NCI-H358
# Procedure, shortened: as §1
# [18] = test system: SW 900
# Procedure, shortened: as §1
# [19] = test system: LCLC-97TM1
# Procedure, shortened: as §1
# [20] = test system: NCI-H2170
# Procedure, shortened: as §1
# [21] = test system: NCI-H2085
# Procedure, shortened: as §1
# [22] = test system: LU99A
# Procedure, shortened: as §1
# [23] = test system: NCI-H2342
# Procedure, shortened: as §1
# [24] = test system: HCC-366
# Procedure, shortened: as §1
structure (smiles),measurement,setting,value
C[C@@H]1CN(CC(=O)Nc2ccc3c(c2)Cc2cccc(-c4cc(=O)cc(N5CCOCC5)o4)c2S3)C[C@H](C)O1 + CC(=O)c1c(C)c2cnc(Nc3ccc(N4CCNCC4)cn3)nc2n(C2CCCC2)c1=O [Palbociclib] (partner 0.5 µM),relative viability,[1]; first compound 0.04 µM,0.517
same,relative viability,[1]; first compound 0.1265 µM,0.526
same,relative viability,[1]; first compound 0.4 µM,0.507
same,relative viability,[1]; first compound 4 µM,0.311
same,relative viability,[2]; first compound 0.04 µM,0.391
same,relative viability,[2]; first compound 0.1265 µM,0.424
same,relative viability,[2]; first compound 0.4 µM,0.397
same,relative viability,[2]; first compound 4 µM,0.328
same,relative viability,[3]; first compound 0.1265 µM,0.343
same,relative viability,[3]; first compound 0.4 µM,0.344
same,relative viability,[3]; first compound 4 µM,0.354
same,relative viability,[4]; first compound 0.04 µM,0.456
same,relative viability,[4]; first compound 0.1265 µM,0.458
same,relative viability,[4]; first compound 0.4 µM,0.48
same,relative viability,[4]; first compound 4 µM,0.487
same,relative viability,[5]; first compound 0.04 µM,0.33
same,relative viability,[5]; first compound 0.1265 µM,0.332
same,relative viability,[5]; first compound 0.4 µM,0.321
same,relative viability,[5]; first compound 4 µM,0.338
same,relative viability,[6]; first compound 0.04 µM,0.434
same,relative viability,[6]; first compound 0.1265 µM,0.372
same,relative viability,[6]; first compound 0.4 µM,0.367
same,relative viability,[6]; first compound 4 µM,0.387
same,relative viability,[7]; first compound 0.04 µM,0.616
same,relative viability,[7]; first compound 0.1265 µM,0.617
same,relative viability,[7]; first compound 0.4 µM,0.613
same,relative viability,[7]; first compound 4 µM,0.549
same,relative viability,[8]; first compound 0.04 µM,0.493
same,relative viability,[8]; first compound 0.1265 µM,0.465
same,relative viability,[8]; first compound 0.4 µM,0.466
same,relative viability,[8]; first compound 4 µM,0.419
same,relative viability,[9]; first compound 0.04 µM,0.297
same,relative viability,[9]; first compound 0.1265 µM,0.323
same,relative viability,[9]; first compound 0.4 µM,0.296
same,relative viability,[9]; first compound 4 µM,0.2
same,relative viability,[10]; first compound 0.04 µM,0.38
same,relative viability,[10]; first compound 0.1265 µM,0.388
same,relative viability,[10]; first compound 0.4 µM,0.331
same,relative viability,[10]; first compound 4 µM,0.321
same,relative viability,[11]; first compound 0.04 µM,0.271
same,relative viability,[11]; first compound 0.1265 µM,0.155
same,relative viability,[11]; first compound 0.4 µM,0.137
same,relative viability,[11]; first compound 4 µM,0.143
same,relative viability,[12]; first compound 0.04 µM,0.428
same,relative viability,[12]; first compound 0.1265 µM,0.531
same,relative viability,[12]; first compound 0.4 µM,0.537
same,relative viability,[12]; first compound 4 µM,0.593
same,relative viability,[13]; first compound 0.04 µM,0.61
same,relative viability,[13]; first compound 0.1265 µM,0.594
same,relative viability,[13]; first compound 0.4 µM,0.658
same,relative viability,[13]; first compound 4 µM,0.563
same,relative viability,[14]; first compound 0.04 µM,0.398
same,relative viability,[14]; first compound 0.1265 µM,0.43
same,relative viability,[14]; first compound 0.4 µM,0.412
same,relative viability,[14]; first compound 4 µM,0.405
same,relative viability,[15]; first compound 0.04 µM,0.578
same,relative viability,[15]; first compound 0.1265 µM,0.58
same,relative viability,[15]; first compound 0.4 µM,0.395
same,relative viability,[15]; first compound 4 µM,0.487
same,relative viability,[16]; first compound 0.04 µM,0.475
same,relative viability,[16]; first compound 0.1265 µM,0.449
same,relative viability,[16]; first compound 0.4 µM,0.432
same,relative viability,[16]; first compound 4 µM,0.399
same,relative viability,[17]; first compound 0.04 µM,0.123
same,relative viability,[17]; first compound 0.1265 µM,0.132
same,relative viability,[17]; first compound 0.4 µM,0.12
same,relative viability,[17]; first compound 4 µM,0.127
same,relative viability,[18]; first compound 0.04 µM,0.532
same,relative viability,[18]; first compound 0.1265 µM,0.472
same,relative viability,[18]; first compound 0.4 µM,0.564
same,relative viability,[18]; first compound 4 µM,0.412
same,relative viability,[19]; first compound 0.1265 µM,0.25
same,relative viability,[19]; first compound 0.4 µM,0.206
same,relative viability,[19]; first compound 4 µM,0.246
same,relative viability,[20]; first compound 0.04 µM,0.399
same,relative viability,[20]; first compound 0.1265 µM,0.436
same,relative viability,[20]; first compound 0.4 µM,0.416
same,relative viability,[20]; first compound 4 µM,0.36
same,relative viability,[21]; first compound 0.04 µM,0.476
same,relative viability,[21]; first compound 0.1265 µM,0.436
same,relative viability,[21]; first compound 0.4 µM,0.498
same,relative viability,[21]; first compound 4 µM,0.419
same,relative viability,[22]; first compound 0.04 µM,0.387
same,relative viability,[22]; first compound 0.1265 µM,0.404
same,relative viability,[22]; first compound 0.4 µM,0.449
same,relative viability,[22]; first compound 4 µM,0.445
same,relative viability,[23]; first compound 0.04 µM,0.525
same,relative viability,[23]; first compound 0.1265 µM,0.556
same,relative viability,[23]; first compound 0.4 µM,0.496
same,relative viability,[23]; first compound 4 µM,0.455
same,relative viability,[24]; first compound 0.04 µM,0.386
same,relative viability,[24]; first compound 0.1265 µM,0.467
same,relative viability,[24]; first compound 0.4 µM,0.395
same,relative viability,[24]; first compound 4 µM,0.184
CC(C)Oc1cc(Nc2nc(N[C@@H](C)c3ccc(F)cn3)ncc2Cl)n[nH]1 [AZ23] + CC(=O)Nc1cccc(-n2c(=O)n(C3CC3)c(=O)c3c(Nc4ccc(I)cc4F)n(C)c(=O)c(C)c32)c1 [Trametinib] (partner 0.02 µM),relative viability,[1]; first compound 0.01 µM,0.303
same,relative viability,[1]; first compound 0.03162 µM,0.297
same,relative viability,[1]; first compound 0.3162 µM,0.239
same,relative viability,[2]; first compound 0.01 µM,0.432
same,relative viability,[2]; first compound 0.03162 µM,0.371
same,relative viability,[2]; first compound 0.3162 µM,0.478
same,relative viability,[3]; first compound 0.01 µM,0.438
same,relative viability,[3]; first compound 0.03162 µM,0.398
same,relative viability,[3]; first compound 0.3162 µM,0.386
same,relative viability,[4]; first compound 0.01 µM,0.494
same,relative viability,[4]; first compound 0.03162 µM,0.669
same,relative viability,[4]; first compound 0.3162 µM,0.418
same,relative viability,[5]; first compound 0.01 µM,0.591
same,relative viability,[5]; first compound 0.03162 µM,0.872
same,relative viability,[5]; first compound 0.3162 µM,0.729
same,relative viability,[6]; first compound 0.03162 µM,0.509
same,relative viability,[6]; first compound 0.3162 µM,0.474
same,relative viability,[7]; first compound 0.01 µM,0.74
same,relative viability,[7]; first compound 0.03162 µM,0.671
same,relative viability,[7]; first compound 0.3162 µM,0.615
same,relative viability,[8]; first compound 0.01 µM,1.09
same,relative viability,[8]; first compound 0.03162 µM,0.898
same,relative viability,[8]; first compound 0.3162 µM,0.868
same,relative viability,[9]; first compound 0.01 µM,0.45
same,relative viability,[9]; first compound 0.03162 µM,0.407
same,relative viability,[9]; first compound 0.3162 µM,0.347
same,relative viability,[10]; first compound 0.03162 µM,0.267
same,relative viability,[10]; first compound 0.3162 µM,0.274
same,relative viability,[11]; first compound 0.01 µM,0.119
same,relative viability,[11]; first compound 0.03162 µM,0.128
same,relative viability,[11]; first compound 0.3162 µM,0.166
same,relative viability,[12]; first compound 0.01 µM,0.569
same,relative viability,[12]; first compound 0.03162 µM,0.717
same,relative viability,[12]; first compound 0.3162 µM,0.684
same,relative viability,[13]; first compound 0.01 µM,0.472
same,relative viability,[13]; first compound 0.03162 µM,0.347
same,relative viability,[13]; first compound 0.3162 µM,0.294
same,relative viability,[14]; first compound 0.01 µM,0.377
same,relative viability,[14]; first compound 0.03162 µM,0.382
same,relative viability,[14]; first compound 0.3162 µM,0.356
same,relative viability,[15]; first compound 0.01 µM,0.387
same,relative viability,[15]; first compound 0.03162 µM,0.495
same,relative viability,[15]; first compound 0.3162 µM,0.302
same,relative viability,[16]; first compound 0.01 µM,0.828
same,relative viability,[16]; first compound 0.03162 µM,0.774
same,relative viability,[16]; first compound 0.3162 µM,0.708
same,relative viability,[17]; first compound 0.01 µM,0.116
same,relative viability,[17]; first compound 0.03162 µM,0.137
same,relative viability,[17]; first compound 0.3162 µM,0.124
same,relative viability,[18]; first compound 0.01 µM,1.06
same,relative viability,[18]; first compound 0.3162 µM,0.873
same,relative viability,[19]; first compound 0.01 µM,0.238
same,relative viability,[19]; first compound 0.03162 µM,0.209
same,relative viability,[19]; first compound 0.3162 µM,0.189
same,relative viability,[20]; first compound 0.01 µM,1.14
same,relative viability,[20]; first compound 0.03162 µM,0.953
same,relative viability,[20]; first compound 0.3162 µM,0.994
same,relative viability,[21]; first compound 0.01 µM,0.477
same,relative viability,[21]; first compound 0.03162 µM,0.746
same,relative viability,[21]; first compound 0.3162 µM,0.538
same,relative viability,[22]; first compound 0.01 µM,0.519
same,relative viability,[22]; first compound 0.03162 µM,0.708
same,relative viability,[22]; first compound 0.3162 µM,0.536
same,relative viability,[23]; first compound 0.01 µM,0.752
same,relative viability,[23]; first compound 0.03162 µM,0.828
same,relative viability,[23]; first compound 0.3162 µM,0.72
same,relative viability,[24]; first compound 0.01 µM,0.334
same,relative viability,[24]; first compound 0.03162 µM,0.399
same,relative viability,[24]; first compound 0.3162 µM,0.33
